According to patent US12077503B2, “Substituted cyclic amides and their use as herbicides” (FMC CORPORATION, priority 2015, dated 2024):
Like-named read-outs stand apart in the source and are kept apart here.

Columns and labels:
Assay type in all cases: in vivo
Kochia (Kochia scoparia) = test: Test A preemergence; details: Bassia scoparia, pre-emergence, 240 h, preemergence, read-out: Kochia plant response rating; for pest or weed control at 125 g/ha: 125 g ai/ha; for pest or weed control at 500 g/ha: 500 g ai/ha
Procedure, shortened: (§1)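 Visual injury, scored on a 0–100 scale relative to untreated controls, was recorded about 10 d after application. Treatments were a preemergence soil spray over planted seeds or a postemergence spray on plants at the one- to two-leaf stage, 2 to 10 cm tall, all in loam soil–sand blend in the greenhouse.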

[1] = system: ragweed (common ragweed, Ambrosia elatior); test: Test A preemergence; details: Ambrosia artemisiifolia, pre-emergence, 240 h, preemergence, read-out: Ragweed plant response rating; for pest or weed control at 500 g/ha: 500 g ai/ha
Procedure, shortened: as §1

[2] = system: giant foxtail (Setaria faberii); test: Test A preemergence; details: Setaria faberi, pre-emergence, 240 h, preemergence, read-out: Foxtail, Giant plant response rating; for pest or weed control at 125 g/ha: 125 g ai/ha; for pest or weed control at 500 g/ha: 500 g ai/ha
Procedure, shortened: as §1

[3] = system: pigweed (Amaranthus retroflexus); test: Test A preemergence; details: Amaranthus retroflexus, pre-emergence, 240 h, preemergence, read-out: Pigweed plant response rating; for pest or weed control at 125 g/ha: 125 g ai/ha; for pest or weed control at 500 g/ha: 500 g ai/ha
[4] = system: barnyardgrass (Echinochloa crus-galli); test: Test A preemergence; details: Echinochloa crus-galli, pre-emergence, 240 h, preemergence, read-out: Barnyardgrass plant response rating; for pest or weed control at 125 g/ha: 125 g ai/ha; for pest or weed control at 500 g/ha: 500 g ai/ha
Procedure, shortened: as §1

[5] = system: ryegrass, Italian (Italian ryegrass, Lolium multiflorum); test: Test A preemergence; details: Lolium multiflorum, pre-emergence, 240 h, preemergence, read-out: Ryegrass, Italian plant response rating; for pest or weed control at 500 g/ha: 500 g ai/ha
Procedure, shortened: as §1

[6] = system: ragweed (common ragweed, Ambrosia elatior); test: Test A postemergence; details: Ambrosia artemisiifolia, post-emergence, 240 h; for pest or weed control at 125 g/ha: 125 g ai/ha
Procedure, shortened: as §1

corn (Zea mays) = test: Test A postemergence; details: Zea mays, post-emergence, 240 h
Procedure, shortened: as §1

[7] = system: pigweed (Amaranthus retroflexus); test: Test A postemergence; details: Amaranthus retroflexus, post-emergence, 240 h; for pest or weed control at 125 g/ha: 125 g ai/ha
Procedure, shortened: as §1

[8] = system: blackgrass (Alopecurus myosuroides); test: Test A postemergence; details: Alopecurus myosuroides, post-emergence, 240 h; for pest or weed control at 125 g/ha: 125 g ai/ha
Procedure, shortened: as §1

[9] = system: ryegrass, Italian (Italian ryegrass, Lolium multiflorum); test: Test A postemergence; details: Lolium multiflorum, post-emergence, 240 h; for pest or weed control at 125 g/ha: 125 g ai/ha
Procedure, shortened: as §1

rice (Oryra sativa) = test: Test B flooded paddy test; details: Oryza sativa, 250 g ai/ha, Flood, read-out: Rice plant response rating
Procedure, shortened: (§2)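 Compound goes directly into floodwater once pots are flooded 3 cm above soil, targeting plants at two leaves; the water depth is then held for the test duration. Plants sit 13–15 d in a greenhouse and are rated visually, 100 denoting complete control.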

[10] = system: sedge, umbrella (small-flower umbrella sedge, Cyperus difformis); test: Test B flooded paddy test; details: Cyperus difformis, 250 g ai/ha, Flood, read-out: Sedge, Umbrella plant response rating
Procedure, shortened: as §2

[11] = system: ducksalad (Heteranthera limosa); test: Test B flooded paddy test; details: Heteranthera limosa, 250 g ai/ha, Flood, read-out: Ducksalad plant response rating
Procedure, shortened: as §2

[12] = system: barnyardgrass (Echinochloa crus-galli); test: Test B flooded paddy test; details: Echinochloa crus-galli, 250 g ai/ha, Flood, read-out: Barnyardgrass plant response rating
Procedure, shortened: as §2

[13] = 0 to 100 scale where 0 is no effect and 100 is complete control, approx. 10 d
[14] = 0 to 100 scale where 0 is no effect and 100 is complete control
[15] = 125 g ai/ha, 0 to 100 scale where 0 is no effect and 100 is complete control, approx. 10 d
[16] = visual injury rating about 10 d after treatment, 0 to 100 scale (0 no effect, 100 complete control)
[17] = scale of 0 to 100 where 0 is no effect and 100 is complete control

## Cc1c(F)cccc1NC(=O)[C@H]1C(=O)N(C)C[C@@H]1c1cc(F)cc(F)c1 [Compound 1140]
Kochia (Kochia scoparia); [13]
  pest or weed control at 125 g/ha: 80%
Kochia (Kochia scoparia); [14]
  pest or weed control at 500 g/ha: 80%
[1]; [15]
  pest or weed control at 125 g/ha: 30%
[1]; [14]
  pest or weed control at 500 g/ha: 60%
[2]; [13]
  pest or weed control at 125 g/ha: 100%
[2]; [14]
  pest or weed control at 500 g/ha: 100%
[3]; [13]
  pest or weed control at 125 g/ha: 0%
[3]; [14]
  pest or weed control at 500 g/ha: 40%
[4]; [13]
  pest or weed control at 125 g/ha: 90%
[4]; [14]
  pest or weed control at 500 g/ha: 100%
[5]; [15]
  pest or weed control at 125 g/ha: 30%
[5]; [14]
  pest or weed control at 500 g/ha: 40%
[6]; postemergence, visual injury on 0 to 100 scale (0 no effect, 100 complete control), approx. 10 d, read-out: Ragweed plant response rating
  pest or weed control at 125 g/ha: 0%
[6]; 500 g ai/ha, postemergence, 0 to 100 scale, 0 is no effect, 100 is complete control, read-out: Ragweed plant response rating
  pest or weed control at 500 g/ha: 30%
Corn (Zea mays); 125 g ai/ha, postemergence, visual injury on 0 to 100 scale (0 no effect, 100 complete control), approx. 10 d, read-out: Corn plant response rating
  plant injury at 125 g/ha: 60%
Corn (Zea mays); 500 g ai/ha, postemergence, 0 to 100 scale, 0 is no effect, 100 is complete control, read-out: Corn plant response rating
  plant injury at 500 g/ha: 70%
[7]; postemergence, visual injury on 0 to 100 scale (0 no effect, 100 complete control), approx. 10 d, read-out: Pigweed plant response rating
  pest or weed control at 125 g/ha: 0%
[7]; 500 g ai/ha, postemergence, 0 to 100 scale, 0 is no effect, 100 is complete control, read-out: Pigweed plant response rating
  pest or weed control at 500 g/ha: 0%
[8]; postemergence, visual injury on 0 to 100 scale (0 no effect, 100 complete control), approx. 10 d, read-out: Blackgrass plant response rating
  pest or weed control at 125 g/ha: 30%
[8]; 500 g ai/ha, postemergence, 0 to 100 scale, 0 is no effect, 100 is complete control, read-out: Blackgrass plant response rating
  pest or weed control at 500 g/ha: 70%
[9]; postemergence, visual injury on 0 to 100 scale (0 no effect, 100 complete control), approx. 10 d, read-out: Ryegrass, Italian plant response rating
  pest or weed control at 125 g/ha: 50%
[9]; 500 g ai/ha, postemergence, 0 to 100 scale, 0 is no effect, 100 is complete control, read-out: Ryegrass, Italian plant response rating
  pest or weed control at 500 g/ha: 70%
Rice (Oryra sativa); [14]
  pest or weed control at 250 g/ha: 0%
[10]; [14]
  pest or weed control at 250 g/ha: 0%
[11]; [14]
  pest or weed control at 250 g/ha: 100%
[12]; [14]
  pest or weed control at 250 g/ha: 75%

## CN1C[C@H](c2ccc(C(F)(F)F)cc2)[C@@H](C(=O)Nc2cccc(F)c2Br)C1=O [Compound 937]
Kochia (Kochia scoparia); [14]
  pest or weed control at 125 g/ha: 80%
Kochia (Kochia scoparia); [16]
  pest or weed control at 500 g/ha: 80%
[1]; [16]
  pest or weed control at 500 g/ha: 80%
[2]; [14]
  pest or weed control at 125 g/ha: 90%
[2]; [16]
  pest or weed control at 500 g/ha: 90%
[3]; [14]
  pest or weed control at 125 g/ha: 50%
[3]; [16]
  pest or weed control at 500 g/ha: 80%
[4]; [14]
  pest or weed control at 125 g/ha: 90%
[4]; [16]
  pest or weed control at 500 g/ha: 90%
[5]; [16]
  pest or weed control at 500 g/ha: 50%
[6]; Postemergence, visual injury after approximately 10 d, 0 to 100 scale where 0 is no effect and 100 is complete control, read-out: Plant response rating, Ragweed
  pest or weed control at 125 g/ha: 20%
Corn (Zea mays); 125 g ai/ha, Postemergence, visual injury after approximately 10 d, 0 to 100 scale where 0 is no effect and 100 is complete control
  Corn plant response rating (crop injury, 0 = no effect, 100 = complete kill) at 125 g/ha: 20%
[7]; Postemergence, visual injury after approximately 10 d, 0 to 100 scale where 0 is no effect and 100 is complete control, read-out: Plant response rating, Pigweed
  pest or weed control at 125 g/ha: 60%
[8]; Postemergence, visual injury after approximately 10 d, 0 to 100 scale where 0 is no effect and 100 is complete control, read-out: Plant response rating, Blackgrass
  pest or weed control at 125 g/ha: 30%
[9]; Postemergence, visual injury after approximately 10 d, 0 to 100 scale where 0 is no effect and 100 is complete control, read-out: Plant response rating, Ryegrass, Italian
  pest or weed control at 125 g/ha: 20%
Rice (Oryra sativa); [17]
  pest or weed control at 250 g/ha: 0%
[10]; [17]
  pest or weed control at 250 g/ha: 0%
[11]; [17]
  pest or weed control at 250 g/ha: 45%
[12]; [17]
  pest or weed control at 250 g/ha: 0%
